Columns and labels:
[1] = test system: CsAALP; type: in vivo, C. sinensis; conditions: 2 mM sprayed on leaves; 48 hours; not statistically significant
[2] = test system: CsSAG12-1; type: in vivo, C. sinensis; conditions: 2 mM sprayed on leaves; 48 hours; not statistically significant
[3] = test system: CsPR1; type: in vivo, C. sinensis; conditions: 2 mM sprayed on leaves; 48 hours
[4] = test system: CsSAG12-4; type: in vivo, C. sinensis; conditions: 2 mM sprayed on leaves; 48 hours
[5] = test system: PtoDC3000Δcip1; type: cell-based, Pseudomonas syringae pv. tomato; conditions: 100 μg/mL
[6] = target: papain (Sigma-Aldrich), a PLCP from papaya (papaya) (UniProt P00784); assay: cell-based or functional assay
[7] = target: CsRD21a-Flag expressed in N. benthamiana and secreted into the apoplast (Citrus sinensis); assay: cell-based or functional assay

Sequence of UniProt P00784 (P00784 134-345 limits assumed): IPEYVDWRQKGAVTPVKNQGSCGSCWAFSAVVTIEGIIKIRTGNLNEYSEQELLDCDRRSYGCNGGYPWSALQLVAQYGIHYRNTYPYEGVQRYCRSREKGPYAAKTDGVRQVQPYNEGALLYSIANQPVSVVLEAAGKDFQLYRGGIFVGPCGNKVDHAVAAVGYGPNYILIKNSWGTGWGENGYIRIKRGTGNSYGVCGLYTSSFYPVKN

## O=C(O)c1ccccc1O [SA, salicylic acid]
[1]
  expression of CsAALP: trend of increased expression
[2]
  expression of CsSAG12-1: trend of increased expression
[3]
  expression of CsPR1: increase
[4]
  expression of CsSAG12-4: significantly up-regulated

## papain
[5]
  inhibitory effect on bacterial growth in artificial media: not observed

## purified recombinant SDE1 protein (tag-free after removal of the His-SUMO tag)
[6]
  DCG-04 labeling of papain (ABPP) (% reduction at 1.6 µM SDE1): 53
[7]
  CsRD21a activity (ABPP, ImageJ signal intensity) (% reduction at 0.8 µM SDE1): 9
  CsRD21a activity (ABPP, ImageJ signal intensity) (% reduction at 1.6 µM SDE1): 62
  CsRD21a activity (ABPP, ImageJ signal intensity) (% reduction at 3.2 µM SDE1): 96
